{
  "source": "patent US9868763B2",
  "about": "“Modulators of protease activated receptors” (The University of Queensland, priority 2011, dated 2018)",
  "key": {"[1]": {"assay": "Pharmacokinetics, four consecutive daily oral doses", "type": "in vivo, Wistar rat", "details": "10 mg/kg/day p.o. for 4 days", "protocol": "Male Wistar rats were surgically implanted with a jugular vein catheter. Blood samples (heparinised) were collected from the catheter of an unanaesthetised, unrestrained rat, 5 min prior to PAR2 antagonist 52 administration (10 mg/kg p.o.) and 30 min, 1-6, 8 and 24 h post-administration. Rats not implanted with a catheter were given PAR2 antagonist 52 (10 mg/kg/day p.o.) four days consecutively (n=6). On the fifth day, plasma, cerebrospinal fluid (CSF), paw tissue and intraperitoneal adipose were collected for LCMS analysis."}, "[2]": {"tested_on": "2furoyl-LIGRLO-NH2-induced paw oedema", "assay": "PAR2 agonist-induced paw oedema", "type": "in vivo, Wistar rat", "protocol": "The methods used are based on those previously described (Kelso, E. B., et al. Arthritis Rheum 2007, 56, 765-71; Kelso, E. B., et al. J Pharmacol Exp Ther 2006, 316, 1017-24; and Vergnolle, N. J Immunol 1999, 163, 5064-9). Male Wistar rats (n=3 per group) are used. Briefly, rats are given either 5 or 10 mg/kg of a compound of the present invention (p.o. via gavage in olive oil, approx. 500 μL, weight adjusted). Control animals receive only olive oil (500 μL p.o.). Two hours later, the PAR2 agonist 2-furoyl-LIGRLO (350 μg/paw in saline, 100 μL) is injected into the plantar surface (i.pl.) of the right paw pad using a 30 G needle. The left paw acts as a control, receiving saline only. Paw thickness and width are measured after 30 minutes and hourly using digital calipers (World Precision Instruments, USA) and swelling is calculated in area (mm^2; thickness multiplied by width) and expressed as a percentage change from baseline of each individual paw.\n(§1) Based on previous methods (Kelso E B et al., J Pharmacol Exp Ther 2006, 316(3):1017-24; Suen J Y et al., Br J Pharmacol 2011, doi: 10.1111/j.1476-5381.2011.01610.x.), PAR2 antagonist 52 (10 mg/kg s.c.; n=4), ENMD-1068 (100 mg/kg s.c.; n=4) or vehicle control (DMSO s.c.; n=2) were administered to male Wistar rats. Baseline paw thickness and width were measured using digital calipers (World Precision Instruments, USA) expressed in area (mm^2; thickness×width). Fifteen minutes later, 2Furoyl-LIGLRO-NH2 (350 μg/paw in 100 μL saline) was injected into of the right hind paw pad (intraplantar, i.pl.). The left hind paw acted as a control, receiving saline only. In a separate experiment, vehicle (500 μL olive oil) versus PAR2 antagonist 52 (10 mg/kg p.o. in 500 μL olive oil) only were administered orally to two groups of rats (4 per group). Two hours later, β-tryptase (human recombinant lung, 20 μg in 100 μL saline) was injected into the right hind paw pad (vehicle in left for control) of all animals in each group. In all experiments, paw swelling was measured and expressed in area (mm^2; thickness×width) and plotted as % change from baseline of each individual paw."}, "[3]": {"tested_on": "TNBS-induced chronic colitis", "assay": "TNBS-induced chronic colitis model", "type": "in vivo, rat", "details": "sulfasalazine 100 mg/kg/day p.o.", "protocol": "On day 0, rats were weighed, given respective treatments of either sulfasalazine (100 mg/kg in olive oil p.o.), compound 52 (10 mg/kg in olive oil), or vehicle (500 l olive oil p.o.), and fasted for 24 h with water supplied ad libitum. The next day (day 1), rats were weighed, dosed with respective compound, and anesthetized with isofluorane. A polyethylene catheter was inserted intrarectally (8 cm). Control and drug-treated animals received an intracolonic dose of TNBS (80 mg/kg in saline and 250 l, 50% ethanol in water) (Fiorucci at al., 2001). Sham animals received vehicle only, with TNBS replaced by equivolume water. Rats were maintained in an inclined position (40°) for 30 min, then allowed to recover with food and water supplied. Rats were dosed daily with the respective compound, weighed, and scored for general health and disease progression. All rats were sacrificed on day 8 of experimentation unless they were sacrificed earlier. Disease progression and post-mortem colonic histopathology was scored by the following methods. PAR2 and tryptase co-localization were investigated by using immunohistochemistry.\nDAI for both acute and chronic models was assessed and scored by an expert blinded to treatments. Scores incorporated mobility, gastrointestinal pathology, discomfort, and generalized sickness behaviour criteria (each scored 0-3). Any animal that reached stage 3 in any criteria was euthanized by CO2 inhalation and recorded as a disease-related mortality. Scores were summed and expressed as total disease score (maximum 12). DAI was measured at endpoint only (10 h) in the acute study and daily in the chronic TNBS study.\nColons were dissected post-mortem and given a macroscopic disease score based on that described previously (Bobin-Dubigeon et al., 2001) with some minor alterations (maximal score 14). The entire colon length was removed between the ileocolic and colorectal junction. Length and maximal distension width were measured. Sections of affected colon were taken for biochemical analysis, histology, and wet/dry weight."}, "β-tryptase": {"target": "T1, β-tryptase (Homo sapiens, UniProt Q15661)", "T1 construct": "purchased Promega", "T1 sequence (Q15661 31-275)": "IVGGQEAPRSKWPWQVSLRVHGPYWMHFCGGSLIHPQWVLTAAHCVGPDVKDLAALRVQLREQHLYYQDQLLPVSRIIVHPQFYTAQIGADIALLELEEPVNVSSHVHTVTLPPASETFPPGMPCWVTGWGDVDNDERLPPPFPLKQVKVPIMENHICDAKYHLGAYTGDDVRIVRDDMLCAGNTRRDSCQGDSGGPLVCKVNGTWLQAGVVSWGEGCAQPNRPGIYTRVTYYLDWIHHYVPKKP", "assay": "Tryptase activity assay", "type": "biochemical", "details": "20 μM; substrate tosyl-Gly-Pro-Arg-pNA", "protocol": "β-tryptase (10 ng/μL, 100 μL) was incubated±PAR2 antagonist 52 (20 μM) for 15 min, to which substrate tosyl-Gly-Pro-Arg-pNA (250 μM) was added. Absorbance was measured as optical density at 405 nm (FLUOstar Optima, BMG labtech, Aust.) every 41 s for 1 h."}, "[4]": {"tested_on": "SLIGRL-NH2-induced acute colonic inflammation", "assay": "PAR2-induced acute colonic inflammation", "type": "in vivo, Wistar rat", "details": "10 mg/kg p.o.", "experimental": "A polyethylene catheter (1.7-mm outer diameter) was inserted 8 cm into the colon via the anus, through which SLIGRL-NH2 (1 mg/rat) or saline vehicle (500 l) was administered. Rats remained anesthetized for 10 min and maintained at an angle of 40° to prevent leakage from the anus. Rats were allowed to recover with food and water supplied. All rats were terminated at 10 h after induction and scored appropriately for disease activity index (DAI) and macroscopic disease (see Disease Activity Index below). Colon tissue was taken for wet/dry ratio and MPO assay.\nColons were dissected post-mortem and given a macroscopic disease score based on that described previously (Bobin-Dubigeon et al., 2001) with some minor alterations (maximal score 14). The entire colon length was removed between the ileocolic and colorectal junction. Length and maximal distension width were measured. […]"}, "[5]": {"tested_on": "β-tryptase-induced paw oedema", "assay": "β-tryptase-induced paw oedema", "type": "in vivo, Wistar rat", "protocol": "as §1"}},
  "note": "“Also recorded” adds a separate entry of the source. Read-outs that look alike come from different tables or passages of the source.",
  "data": [
    {"smiles": "CC[C@H](C)[C@@H](NC(=O)[C@H](CC1CCCCC1)NC(=O)c1ccno1)C(=O)N1CCC2(C=Cc3ccccc32)CC1", "note": "[Compound 52]", "values": [
      {"measurement": "Cp after fourth dose greater than the single-dose Cp at 24 h", "setting": "[1]", "result": "~30", "unit": "%"},
      {"measurement": "concentration at 5 day", "setting": "[1]; Wistar, rat, cerebrospinal fluid, oral, read-out: concentration in cerebral spinal fluid (none detected, LCMS/MS detection limit)", "result": "< 1.8", "unit": "nM"},
      {"measurement": "Kp at 24 h", "setting": "[1]; Wistar, rat, intraperitoneal adipose / plasma, oral, read-out: intraperitoneal adipose concentration as share of Cp at 24 h", "result": "~0.3"},
      {"measurement": "concentration at 5 day", "setting": "[1]; Wistar, rat, intraperitoneal adipose, oral, read-out: concentration in intraperitoneal adipose", "result": "150 ± 20", "unit": "nM"},
      {"measurement": "concentration at 24 h", "setting": "[1]; Wistar, rat, plasma, oral, read-out: plasma concentration Cp at 24 h after the fourth dose", "result": "500 ± 100", "unit": "nM"},
      {"measurement": "paw oedema induced by other PAR2 agonists, e.g. trypsin, SLIGRL-NH2 and GB110", "setting": "[2]; recently found", "result": "inhibit paw oedema"},
      {"measurement": "paw oedema induced by 2furoyl-LIGRLO-NH2", "setting": "[2]; s.c., 52 10 mg/kg, ENMD-1068 100 mg/kg, agonist 350 μg/paw", "result": "reduced the paw oedema; also recorded: strongly reduce the paw oedema"},
      {"measurement": "chronic colitis: mortality and pathology (colon obstruction, ulceration, wall thickness, myeloperoxidase release)", "setting": "[3]; 52 10 mg/kg/day p.o.", "result": "ameliorated; also recorded: more effectively than the clinically used drug sulfasalazine"},
      {"measurement": "TNBS-mediated mortality", "setting": "[3]; 52 10 mg/kg/day", "result": 8.3, "unit": "%"},
      {"measurement": "DAI compared with TNBS-controls", "setting": "[3]; from day 2 onward, 52 10 mg/kg/day", "result": "marked improvements in DAI; also recorded: almost complete recovery"},
      {"measurement": "inhibition of proteolytic activity of β-tryptase", "setting": "β-tryptase", "result": "did not inhibit; also recorded: not inhibited"},
      {"measurement": "acute colonic inflammation induced by SLIGRL-NH2", "setting": "[4]", "result": "inhibited"},
      {"measurement": "edema, mucin depletion, PAR2 receptor internalization and mastocytosis", "setting": "[4]", "result": "markedly reduced"},
      {"measurement": "paw oedema induced by β-tryptase", "setting": "[5]; 10 mg/kg p.o. in olive oil, β-tryptase 20 μg/paw 2 h later", "result": "reduced paw oedema; also recorded: prevented the oedema; also recorded: strongly inhibited"},
      {"measurement": "β-tryptase-induced mast cell degranulation in the extrasynovium", "setting": "[5]; 10 mg/kg pretreatment", "result": "ameliorated; also recorded: prevented"}
    ]}
  ]
}
